In patent US9592223B2, “Small molecule inhibitors of MALT1” (Cornell University, priority 2012, dated 2017):

What was measured:
[1] = test system: MALT1^WT NF-κB activation; assay: NF-κB reporter assay in 293T cells, PMA/ionomycin, BCL10 and MALT1 WT; type: cell-based; settings: pre-treatment
Excerpt: (§1) Antigen receptor-mediated NF-κB signaling partly depends on MALT1 activity (Ruefli-Brasse et al., 2003; Ruland et al., 2003). […] First, 293T cells were transfected with the NF-κB reporter vector (NF-κB)5-luc2CP-pGL4 (harboring 5 copies of the NF-κB consensus response element and a destabilized Firefly luciferase) and TK-pRL control together with plasmids expressing BCL10 and either MALT1^WT or MALT1^C464A. […] HBL-1 was transfected with the reporter construct (NF-κB)5-luc2CP-pGL4 and TK-pRL control.
(§2) Reporter assays were performed in 293T cells seeded at a density of 2×10^5 cells per well of a 12-well dish. 100 ng of (NF-κB)5-Luc2CP-pGL4 and 10 ng of TK-Renilla internal control plasmid were cotransfected along with 25 ng of the indicated plasmids (MIGR1-MALT1^WT or MIGR1-MALT1^C464A and pcDNA4-Flag-Bcl10) using Lipofectamine 2000 (Invitrogen). Lysates were submitted to dual luciferase assays following manufacturer's protocol (Promega). In HBL-1, 5 μg of (NF-κB)5-Luc2CP-pGL4 and 50 ng of TK-Renilla internal control plasmid per 5×10^6 cells were cotransfected using nucleofection (Amaxa, Lonza, Basel, Switzerland). Forty-eight hours after transfection, cells were plated at a density of 5×10^4 cells per well of a 24-well plate and treated as indicated. Lysates were submitted to dual luciferase assays following manufacturer's protocol (Promega).

[2] = test system: MALT1^C464A (inactive mutant) NF-κB activation; assay: NF-κB reporter assay in 293T cells, PMA/ionomycin, BCL10 and MALT1 C464A; type: cell-based; settings: pre-treatment
Excerpt: as §1, §2

HBL-1, TMD8 and OCI-Ly10 = assay: CFSE dilution assay by flow cytometry, ABC-DLBCL lines; type: cell-based, human; settings: viable cells at 48, 72 and 96 h
Description: Cell proliferation was examined using the CFSE dilution assay by flow cytometry on viable cells at 48, 72 and 96 h. […] Trypan blue exclusion and apoptosis assessed by Annexin V^+ DAPI^− flow cytometry was measured every 48 hr for a period of 14 days.
CFSE covalently labels long-lived intracellular molecules with carboxyfluorescein. Following each cell division, fluorescent molecules dilute in daughter cells, allowing comparative study of the kinetics of cell division. Cells were stained with DAPI (Sigma), followed by flow cytometry. DAPI^neg cells were gated for analysis.

[3] = test system: TMD8 ABC-DLBCL xenografts; assay: TMD8 xenograft in NOD-SCID mice; type: in vivo; settings: IP 25 mg/kg/day
Description: (§3) Animals were sacrificed 24 hr after the fourteenth injection.
(§4) Eight-week old male SCID NOD.CB17-Prkdc^scid/J mice were subcutaneously injected with low-passage 10^7 human HBL-1, TMD8 or OCI-Ly1 cells. Treatment was administered by intra-peritoneal injection. Tumor volume was monitored by three-weekly digital calipering. All procedures followed US NIH protocols and were approved by the Animal Institute Committee of the Weill Cornell Medical College.
(§5) Eight-week old male SCID NOD.CB17-Prkdc^scid/J mice were purchased from Jackson Laboratories (Bar Harbor, Minn.) and housed in a clean environment. Mice were subcutaneously injected with low-passage 10^7 human TMD8 or OCI-Ly1 cells in 50% matrigel (BD Biosciences, #354234). Treatment was initiated when tumors reached an average size of 120 mm^3 (17 days post-transplantation). Drugs were reconstituted in DMSO and stored at −80° C. until used and were administered by intra-peritoneal injection. Tumor volume was monitored by three-weekly digital calipering (Fisher Scientific, Thermo Scientific, Rockford, Ill.) and calculated using the formula (smallest diameter^2×largest diameter)/2. Data were expressed as mean±SEM, and differences were considered statistically significant at p<0.05 by paired Student's t-test. All procedures involving animals followed US NIH protocols and were approved by the Animal Institute Committee of the Weill Cornell Medical College of Cornell University.
(§6) Paraffin-embedded tumor xenografts were sectioned, dewaxed and submitted to antigen retrieval. For IF-P, Alexa Fluor-488 conjugated secondary antibodies from Invitrogen where used and cell nuclei where counterstained with DAPI. Fluorescent images were taken using an Axiovert 200M fluorescent microscope (Carl Zeiss Inc., Thornwood, N.Y.). Oberkochen, Germany). For IHC, biotin-conjugated secondary antibodies where used. Then avidin/biotin peroxidase was applied to the slides (Vector Laboratories). Color was developed with diaminobenzoate chromogen peroxidase substrate (Vector) and counterstained with hematoxilin-eosyn. […]

[4] = test system: HBL-1 ABC-DLBCL xenografts; assay: HBL-1 xenograft in NOD-SCID mice; type: in vivo; settings: IP 25 mg/kg/day
Description: as §3, §4, §5, §6

COCCOc1nc(-c2ccc(Cl)c(Cl)c2)n(-c2ccc(NC(=O)CCl)cc2)n1 [MI-2]
NF-κB induction by PMA/ionomycin stimulation [1]: significantly inhibited NF-κB induction | NF-κB induction by PMA/ionomycin stimulation [2]: did not significantly affect | cell proliferation (CFSE dilution) (HBL-1, TMD8 and OCI-Ly10): substantially inhibited proliferation | xenograft growth vs. vehicle ([3]; fourteen injections, p=0.015): profoundly suppressed the growth | apoptotic cells (TUNEL assay) ([3]; p<0.0001): significant increase in apoptotic cells | proliferation (Ki-67 staining) ([3]; p=0.0006): significant decrease in proliferation | xenograft growth vs. vehicle ([4]; fourteen injections, p=0.014): profoundly suppressed the growth | proliferation (Ki-67 staining) ([4]; p<0.0001): significant decrease in proliferation | apoptotic cells (TUNEL assay) ([4]; p=0.0008): significant increase in apoptotic cells
